The values below come from patent US10087191B2, “Piperidine derivative and preparation method and pharmaceutical use thereof” (Jiangsu Hengrui Medicine Co., Ltd., priority 2015, dated 2018).

SMILES strings stand for the structures.

The assay concerns MCF7 cells. Kind of assay: Inhibition of the proliferation of MCF7 cells (Cell Titer-Glo). In kind it is cell-based. The conditions noted are these: Homo sapiens, MCF-7 cells, 72 hours, read-out: IC50 value of inhibition effect on the proliferation of MCF7 cells. As to the method:
The object of this experiment was to determine the inhibition effect of the compounds on the proliferation activity of MCF7 cells, and the in vitro activity of the compounds was evaluated according to the IC50 value.
After incubation for 24 hours, the medium was removed, then 90 μl of the medium containing 2% FBS and 10 μl of the drug were added to each well, 10 μl of DMSO were added to the control group, and the blank group contained only 100 μl medium containing 2% FBS. The plate was gently shaken and incubated in a incubator at 37° C., 5% CO2. After 72 hours, 50 μl of mixed Cell Titer-Glo (Promega, Cat. No. G7571) were added to each well. The plate was shaken until the ingredients were well mixed, and placed at room temperature for 10 minutes, then the chemiluminescence signal value was determined.
The values of the chemiluminescence signals vs the logarithmic concentrations of the compounds were plotted using Graghpad Prism to obtain IC50 values.
Background: ATP-based viability assays read luminescence as a measure of living cells.

Consider `CC1Cc2cc(O)ccc2C(c2c(F)cc(/C=C/C(=O)O)cc2F)N1CC(C)(C)F` [Example 3, (E)-3-(3,5-difluoro-4-((1S,3R/1R,3S)-2-(2-fluoro-2-methylpropyl)-6-hydroxy-3-methyl-1,2,3,4-tetrahydroisoquinolin-1-yl)phenyl)acrylic acid], for which the IC50 is 2.12 nM.
Regarding `Cc1ncc(-c2ccc3c(c2)C[C@@H](C)N(CC(C)(C)F)[C@@H]3c2c(F)cc(/C=C/C(=O)O)cc2F)s1` [Example 11, (E)-3-(3,5-difluoro-4-((1S,3R)-2-(2-fluoro-2-methylpropyl)-3-methyl-6-(2-methylthiazol-5-yl)-1,2,3,4-tetrahydroisoquinolin-1-yl)phenyl)acrylic acid], the IC50 is 0.08 nM.
In the case of `CCn1cc(-c2ccc3c(c2)C[C@H](C)N(CC(C)(C)F)[C@H]3c2c(F)cc(/C=C/C(=O)O)cc2F)cn1` [Example 22, (E)-3-(4-((1R,3S)-6-(1-ethyl-1H-pyrazol-4-yl)-2-(2-fluoro-2-methylpropyl)-3-methyl-1,2,3,4-tetrahydroisoquinolin-1-yl)-3,5-difluorophenyl)acrylic acid], the IC50 is 17.4 nM.
The value for `C[C@@H]1Cc2cc(-c3cn[nH]c3)ccc2[C@@H](c2c(F)cc(/C=C/C(=O)O)cc2F)N1CC(C)(C)F` [Example 25, (E)-3-(3,5-difluoro-4-((1S,3R)-2-(2-fluoro-2-methylpropyl)-3-methyl-6-(1H-pyrazol-4-yl)-1,2,3,4-tetrahydroisoquinolin-1-yl)phenyl)acrylic acid] was 0.22 nM; that for `CC1Cc2cc(-c3cccnc3)ccc2C(c2c(F)cc(/C=C/C(=O)O)cc2F)N1CC(C)(C)F` [Example 28, (E)-3-(3,5-difluoro-4-((1S,3R/1R,3S)-2-(2-fluoro-2-methylpropyl)-3-methyl-6-(pyridin-3-yl)-1,2,3,4-tetrahydroisoquinolin-1-yl)phenyl)acrylic acid] was 3.71 nM.
Then `CNC(=O)Nc1ccc2c(c1)CC(C)N(CC(C)(C)F)C2c1c(F)cc(/C=C/C(=O)O)cc1F` [Example 29, (E)-3-(3,5-difluoro-4-((1S,3R/1R,3S)-2-(2-fluoro-2-methylpropyl)-3-methyl-6-(3-methylureido)-1,2,3,4-tetrahydroisoquinolin-1-yl)phenyl)acrylic acid], with 4.82 nM; and `CC1Cc2cc(NC(=O)N(C)C)ccc2C(c2c(F)cc(/C=C/C(=O)O)cc2F)N1CC(C)(C)F` [Example 44, (E)-3-(4-((1S,3R/1R,3S)-6-(3,3-dimethylureido)-2-(2-fluoro-2-methylpropyl)-3-methyl-1,2,3,4-tetrahydroisoquinolin-1-yl)-3,5-difluorophenyl)acrylic acid], with 1.59 nM.
The value for `CCc1nc(-c2ccc3c(c2)CC(C)N(CC(C)(C)F)C3c2c(F)cc(/C=C/C(=O)O)cc2F)no1` [Example 46, (E)-3-(4-((1S,3R/1R,3S)-6-(5-ethyl-1,2,4-oxadiazol-3-yl)-2-(2-fluoro-2-methylpropyl)-3-methyl-1,2,3,4-tetrahydroisoquinolin-1-yl)-3,5-difluorophenyl)acrylic acid] was 3.66 nM; that for `CC1Cc2cc(-c3nnn(C)n3)ccc2C(c2c(F)cc(/C=C/C(=O)O)cc2F)N1CC(C)(C)F` [Example 51, (E)-3-(3,5-difluoro-4-((1S,3R/1R,3S)-2-(2-fluoro-2-methylpropyl)-3-methyl-6-(2-methyl-2H-tetrazol-5-yl)-1,2,3,4-tetrahydroisoquinolin-1-yl)phenyl)acrylic acid] was 3.07 nM; that for `Cc1noc(-c2ccc3c(c2)CC(C)N(CC(C)(C)F)C3c2c(F)cc(/C=C/C(=O)O)cc2F)n1` [Example 53, (E)-3-(3,5-difluoro-4-((1S,3R/1R,3S)-2-(2-fluoro-2-methylpropyl)-3-methyl-6-(3-methyl-1,2,4-oxadiazol-5-yl)-1,2,3,4-tetrahydroisoquinolin-1-yl)phenyl)acrylic acid] was 15 nM.
Consider `C[C@H]1Cc2cc(-c3cnn(C)c3)ccc2[C@H](c2c(F)cc(/C=C/C(=O)O)cc2F)N1CC(C)(C)F` [Example 56, (E)-3-(3,5-difluoro-4-((1R,3S)-2-(2-fluoro-2-methylpropyl)-3-methyl-6-(1-methyl-1H-pyrazol-4-yl)-1,2,3,4-tetrahydroisoquinolin-1-yl)phenyl)acrylic acid], for which the IC50 turned out to be 0.01 nM.
Then `CC1Cc2cc(-c3ccc(-c4cnn(C)c4)nc3)ccc2C(c2c(F)cc(/C=C/C(=O)O)cc2F)N1CC(C)(C)F` [Example 61, (E)-3-(3,5-difluoro-4-((1S,3R/1R,3S)-2-(2-fluoro-2-methylpropyl)-3-methyl-6-(6-(1-methyl-1H-pyrazol-4-yl)pyridin-3-yl)-1,2,3,4-tetrahydroisoquinolin-1-yl)phenyl)acrylic acid], with 3.58 nM; and `CC1Cc2c(oc3c(F)cccc23)C(c2c(F)cc(/C=C/C(=O)O)cc2F)N1CC(C)(C)F` [Example 84, (E)-3-(3,5-difluoro-4-((1R,3R/1S,3S)-8-fluoro-2-(2-fluoro-2-methylpropyl)-3-methyl-1,2,3,4-tetrahydrobenzofuro[2,3-c]pyridin-1-yl)phenyl)acrylic acid], with 4.21 nM.
The value for `CC1Cc2c(oc3ccc(Br)cc23)C(c2c(F)cc(/C=C/C(=O)O)cc2F)N1CC(C)(C)F` [Example 87, (E)-3-(4-((1R,3R/1S,3S)-6-bromo-2-(2-fluoro-2-methylpropyl)-3-methyl-1,2,3,4-tetrahydrobenzofuro[2,3-c]pyridin-1-yl)-3,5-difluorophenyl)acrylic acid] was 9.27 nM; that for `CC1Cc2c(oc3ccc(-c4cccnc4)cc23)C(c2c(F)cc(/C=C/C(=O)O)cc2F)N1CC(C)(C)F` [Example 90, (E)-3-(3,5-difluoro-4-((1R,3R/1S,3S)-2-(2-fluoro-2-methylpropyl)-3-methyl-6-(pyridin-3-yl)-1,2,3,4-tetrahydrobenzofuro[2,3-c]pyridin-1-yl)phenyl)acrylic acid] was 0.21 nM.
The value for `CC(C)CN1C(C)Cc2c(ccc3[nH]ncc23)C1c1c(F)cc(/C=C/C(=O)O)cc1F` [Example 92, (E)-3-(3,5-difluoro-4-((6S,8R/6R,8S)-7-isobutyl-8-methyl-6,7,8,9-tetrahydro-3H-pyrazolo[4,3-f]isoquinolin-6-yl)phenyl)acrylic acid] was 0.99 nM.
